# In patent publication US4582839A, “2,4-thiazolidinediones” (Takeda Chemical Industries, Ltd., priority 1985, dated 1986):
# Tested on: KKAy mice
# Assay: Blood sugar- and lipid-lowering activity in mice (test compound 0.005% in diet, 4 days)
# Type: in vivo
# Details: Mus musculus, feed or water, 96 h, 0.005% in powder diet, male KKAy mice, enzyme method (Cleantech TG-S Kit), read-out: Hypolipemic activity (rate of lowering of plasma triglyceride from control group)
# Method: Blood sugar- and lipid-lowering activity in mice.
# 0.005% of a test compound was mixed with a powder diet (CE-2, produced by CLEA JAPAN), and KKAy mice (male, 8 to 10 weeks of age, 5 mice/group) were placed on the diet for 4 days, and allowed free access to water throughout the experiment. Blood samples were taken from the orbital veins and assayed for blood sugar by the glucose oxidase method and for plasma triglyceride by the enzyme method in which the produced glycerol was determined by means of Cleantech TG-S Kit (Yatron), respectively. The respective values are expressed in terms of rate of lowering (%) from the values of control group not receiving the test compound.
row,SMILES,"inhibition in vivo at 0.005 %, 0.005 % in diet [%]"
1,"CCc1ccc(C(O)COc2ccc(CC3SC(=O)NC3=O)cc2)nc1 (stereo not shown) [Example 3, 5-{4-[2-(5-ethyl-2-pyridyl)-2-hydroxyethoxy]benzyl}-2,4-thiazolidinedione]",35
2,"CCc1ccc(C(CO)COc2ccc(CC3SC(=O)NC3=O)cc2)nc1 (stereo not shown) [Example 4, 5-{4-[2-(5-ethyl-2-pyridyl)-3-hydroxypropoxy]benzyl}-2,4-thiazolidinedione]",38
3,"Cc1cccc(C(O)COc2ccc(CC3SC(=O)NC3=O)cc2)n1 (stereo not shown) [Example 1, 5-{4-[2-hydroxy-2-(6-methyl-2-pyridyl)ethoxy]benzyl}-2,4-thiazolidinedione]",47
4,"O=C1NC(=O)C(Cc2ccc(OCC(O)c3ccccn3)cc2)S1 (stereo not shown) [Example 8, 5-{4-[2-Hydroxy-2-(2-pyridyl)ethoxy]benzyl}-2,4-thiazolidinedione]",53
5,"Cc1cccnc1C(CO)COc1ccc(CC2SC(=O)NC2=O)cc1 (stereo not shown) [Example 2, 5-{4-[3-hydroxy-2-(3-methyl-2-pyridyl)propoxy]-benzyl}-2,4-thiazolidinedione]",11
6,"Cc1cc(C)nc(C(O)COc2ccc(CC3SC(=O)NC3=O)cc2)c1 (stereo not shown) [Example 10, 5-{4-[2-(4,6-dimethyl-2-pyridyl)-2-hydroxyethoxy]benzyl}-2,4-thiazolidinedione]",47
7,"Cc1cccnc1C(O)COc1ccc(CC2SC(=O)NC2=O)cc1 (stereo not shown) [Example 7, 5-{4-[2-Hydroxy-2-(3-methyl-2-pyridyl)ethoxy]benzyl}-2,4-thiazolidinedione]",58
8,"Cc1ccc(C(O)COc2ccc(CC3SC(=O)NC3=O)cc2)nc1 (stereo not shown) [Example 9, 5-{4-[2-Hydroxy-2-(5-methyl-2-pyridyl)ethoxy]benzyl}-2,4-thiazolidinedione]",19

# Same assay, conditions: Mus musculus, feed or water, 96 h, 0.005% in powder diet, male KKAy mice, glucose oxidase method, read-out: Hypoglycemic activity (rate of lowering of blood sugar from control group)
row,SMILES,"inhibition in vivo at 0.005 %, 0.005 % in diet [%]"
1,"CCc1ccc(C(O)COc2ccc(CC3SC(=O)NC3=O)cc2)nc1 (stereo not shown) [Example 3, 5-{4-[2-(5-ethyl-2-pyridyl)-2-hydroxyethoxy]benzyl}-2,4-thiazolidinedione]",32
2,"CCc1ccc(C(CO)COc2ccc(CC3SC(=O)NC3=O)cc2)nc1 (stereo not shown) [Example 4, 5-{4-[2-(5-ethyl-2-pyridyl)-3-hydroxypropoxy]benzyl}-2,4-thiazolidinedione]",45
3,"Cc1cccc(C(O)COc2ccc(CC3SC(=O)NC3=O)cc2)n1 (stereo not shown) [Example 1, 5-{4-[2-hydroxy-2-(6-methyl-2-pyridyl)ethoxy]benzyl}-2,4-thiazolidinedione]",45
4,"O=C1NC(=O)C(Cc2ccc(OCC(O)c3ccccn3)cc2)S1 (stereo not shown) [Example 8, 5-{4-[2-Hydroxy-2-(2-pyridyl)ethoxy]benzyl}-2,4-thiazolidinedione]",47
5,"Cc1cccnc1C(CO)COc1ccc(CC2SC(=O)NC2=O)cc1 (stereo not shown) [Example 2, 5-{4-[3-hydroxy-2-(3-methyl-2-pyridyl)propoxy]-benzyl}-2,4-thiazolidinedione]",22
6,"Cc1cc(C)nc(C(O)COc2ccc(CC3SC(=O)NC3=O)cc2)c1 (stereo not shown) [Example 10, 5-{4-[2-(4,6-dimethyl-2-pyridyl)-2-hydroxyethoxy]benzyl}-2,4-thiazolidinedione]",40
7,"Cc1cccnc1C(O)COc1ccc(CC2SC(=O)NC2=O)cc1 (stereo not shown) [Example 7, 5-{4-[2-Hydroxy-2-(3-methyl-2-pyridyl)ethoxy]benzyl}-2,4-thiazolidinedione]",53
8,"Cc1ccc(C(O)COc2ccc(CC3SC(=O)NC3=O)cc2)nc1 (stereo not shown) [Example 9, 5-{4-[2-Hydroxy-2-(5-methyl-2-pyridyl)ethoxy]benzyl}-2,4-thiazolidinedione]",35

# Tested on: not listed separately
# Assay: Acute oral toxicity (LD50) in rat
# Details: in vivo, administered orally
# Method: With reference to the method of administration, they are normally usable orally for example in the form of tablets, capsules, powders, granules, etc., but can also be administered parenterally in the form of injectable solutions, suppositories, pellets, etc., as the case may be. In the case of their being employed as a therapeutic agent for diabetes, they can be normally administered orally in daily doses of 0.05 mg to 10 mg/kg or parenterally in daily doses of 0.01 mg to 10 mg/kg, per adult human, and in the case of their being utilized as a therapeutic agent for hyperlipemia, they can be normally given orally in daily doses of 0.05 mg to 10 mg/kg or parenterally in daily doses of 0.01 mg to 10 mg/kg, per adult human, whereby it is desirable to administer such quantities once daily or intermittently twice to four times weekly.
row,SMILES,LD50 [mg/kg]
1,"CCc1ccc(C(O)COc2ccc(CC3SC(=O)NC3=O)cc2)nc1 (stereo not shown) [Example 3, 5-{4-[2-(5-ethyl-2-pyridyl)-2-hydroxyethoxy]benzyl}-2,4-thiazolidinedione]",≥ 5000
2,"Cc1cccc(C(O)COc2ccc(CC3SC(=O)NC3=O)cc2)n1 (stereo not shown) [Example 1, 5-{4-[2-hydroxy-2-(6-methyl-2-pyridyl)ethoxy]benzyl}-2,4-thiazolidinedione]",≥ 5000
3,"Cc1cccnc1C(CO)COc1ccc(CC2SC(=O)NC2=O)cc1 (stereo not shown) [Example 2, 5-{4-[3-hydroxy-2-(3-methyl-2-pyridyl)propoxy]-benzyl}-2,4-thiazolidinedione]",≥ 5000
4,"CC(=O)OC(COc1ccc(CC2SC(=O)NC2=O)cc1)c1cccc(C)n1 (stereo not shown) [Example 5, 5-{4-[2-acetoxy-2-(6-methyl-2-pyridyl)ethoxy]benzyl}-2,4-thiazolidinedione]",≥ 5000
5,"CCc1ccc(C(COC(C)=O)COc2ccc(CC3SC(=O)NC3=O)cc2)nc1 (stereo not shown) [Example 6, 5-{4-[3-acetoxy-2-(5-ethyl-2-pyridyl)propoxy]benzyl}-2,4-thiazolidinedione]",≥ 5000
6,"CCc1ccc(C(CO)COc2ccc(CC3SC(=O)NC3=O)cc2)nc1 (stereo not shown) [5-{4-[2-(5-ethyl-2-pyridyl)-3-hydroxypropoxy]benzyl}-2,4-thiazolidinedione]",≥ 5000
